PMC7854658, “Structural basis for ligand recognition of the neuropeptide Y Y2 receptor” (Nature Communications, 2021)
Where “and” joins values, the source holds several entries; their conditions need not be identical. Identical values can stand only once.

Experiments:
Y2R mutant L183^4.60A = target: T1, Y2R mutant L183^4.60A (Homo sapiens, UniProt P49146, L183A); test: NPY-induced IP accumulation (IP-One), mutant; type: cell-based; details: 1 μM antagonist, source data Fig. 3
T1 construct: expressed in transfected cells; host or cells: HEK293
T1 sequence (P49146 whole entry L183A): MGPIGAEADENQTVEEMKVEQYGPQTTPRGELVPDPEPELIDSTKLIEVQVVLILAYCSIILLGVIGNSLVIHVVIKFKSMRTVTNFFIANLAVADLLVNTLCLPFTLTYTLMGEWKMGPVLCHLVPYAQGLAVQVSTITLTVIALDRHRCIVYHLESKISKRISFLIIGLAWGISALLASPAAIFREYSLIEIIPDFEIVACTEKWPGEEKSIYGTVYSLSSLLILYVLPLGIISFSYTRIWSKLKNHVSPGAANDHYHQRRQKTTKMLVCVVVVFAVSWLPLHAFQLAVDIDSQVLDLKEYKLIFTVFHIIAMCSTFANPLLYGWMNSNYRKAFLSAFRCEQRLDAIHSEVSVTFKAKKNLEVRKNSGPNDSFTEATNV

Y2R mutant Q288^6.55A = target: T2, Y2R mutant Q288^6.55A (Homo sapiens, UniProt P49146, Q288A); test: NPY-induced IP accumulation (IP-One), mutant; type: cell-based
T2 construct: expressed in transfected cells; host or cells: HEK293
T2 sequence (P49146 1-381 Q288A): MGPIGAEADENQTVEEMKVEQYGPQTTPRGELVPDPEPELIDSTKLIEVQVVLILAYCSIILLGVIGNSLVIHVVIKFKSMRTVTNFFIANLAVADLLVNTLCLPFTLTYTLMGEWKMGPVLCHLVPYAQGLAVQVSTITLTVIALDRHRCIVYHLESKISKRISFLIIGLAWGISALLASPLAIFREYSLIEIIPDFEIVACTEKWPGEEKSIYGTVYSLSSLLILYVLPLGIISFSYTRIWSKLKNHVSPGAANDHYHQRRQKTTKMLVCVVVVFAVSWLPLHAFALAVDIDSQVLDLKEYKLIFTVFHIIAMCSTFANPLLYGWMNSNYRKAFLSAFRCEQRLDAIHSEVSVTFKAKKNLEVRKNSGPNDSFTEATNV

[1] = tested on: opioid and adrenergic receptors; design: method as in Brothers, S. P. et al., Mol. Pharmacol. 77:46–57, 2010; details: ref Brothers, S. P. et al., Mol. Pharmacol. 77:46–57, 2010; cited from earlier work
[2] = design: method as in Brothers, S. P. et al., Mol. Pharmacol. 77:46–57, 2010; details: ref Brothers, S. P. et al., Mol. Pharmacol. 77:46–57, 2010; cited from earlier work
[3] = 1 μM antagonist, source data Fig. 3

N=C(N)NCCC[C@H](NC(=O)CC1(CC(=O)N2CCN(C3c4ccccc4NC(=O)c4ccccc43)CC2)CCCC1)C(=O)NCCn1c(=O)n(-c2ccccc2)n(-c2ccccc2)c1=O (some centres unmarked) [BIIE0246]
Average EC50 ratio (Y2R mutant L183^4.60A): 10.3 | EC50 ratio (individual experiments) (Y2R mutant L183^4.60A): 6.3 and 14.3 | Average EC50 ratio (Y2R mutant Q288^6.55A; [3]): 143.2 | EC50 ratio (individual experiments) (Y2R mutant Q288^6.55A; [3]): 101.5 and 185.0 | EC50 ratio (Y2R mutant Q288^6.55A; EC50(NPY + 1 μM antagonist)/EC50(NPY)): 102 and 185 | Ratio change (fold) (Y2R mutant Q288^6.55A; EC50 ratio (WT)/EC50 ratio (mutant)): 1.6 fold and 0.9 fold | Affinities at opioid and adrenergic receptors [1]: submicromolar | Blood-brain-barrier permeability [2]: poor
